Measurements as given in the supplement of paper PMC8612539.
≈ marks a conversion by molar mass, not a printed value.

Legend:
[1] = system: Enterococcus spp.; assay: minimum inhibitory concentration (MIC)
Experimental: (§1)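 Broth microdilution MIC (Sensititre BOPO7F bovine plate, CLSI methods) of 19 antimicrobials against field isolates of P. multocida, M. haemolytica, H. somni (deep nasopharyngeal swabs) and E. coli, Enterococcus spp. (rectal swabs) from weaned dairy heifers. Incubation 16-24 h at 35 C. MIC is the lowest concentration preventing visible growth. Values with <= or > lie at the tested range limits. Trimethoprim-sulfamethoxazole is given as the trimethoprim component of a 1:19 mixture.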

[2] = system: Mannheimia haemolytica; assay: minimum inhibitory concentration (MIC)
Experimental: as §1

CC1(C)S[C@@H]2[C@H](NC(=O)[C@H](N)c3ccccc3)C(=O)N2[C@H]1C(=O)O [Ampicillin]
minimum inhibitory concentration [µg/mL]
Conditions	[1]	[2]
isolate (source animal id): 2	≤ 0.25	–
isolate (source animal id): 8	–	≤ 0.25
isolate (source animal id): 13	–	≤ 0.25
isolate (source animal id): 18	–	≤ 0.25
isolate (source animal id): 21	–	≤ 0.25
isolate (source animal id): 25	–	≤ 0.25
isolate (source animal id): 27	–	≤ 0.25
isolate (source animal id): 28	–	> 16
isolate (source animal id): 30	–	≤ 0.25
isolate (source animal id): 31	–	> 16
isolate (source animal id): 32	–	≤ 0.25
isolate (source animal id): 34	–	≤ 0.25
isolate (source animal id): 35	1 (≈ 2.86 µM)	–
isolate (source animal id): 36	–	≤ 0.25
isolate (source animal id): 37	–	≤ 0.25
isolate (source animal id): 40	–	≤ 0.25
isolate (source animal id): 41	–	≤ 0.25
isolate (source animal id): 42	1 (≈ 2.86 µM)	–
isolate (source animal id): 43	–	≤ 0.25
isolate (source animal id): 44	1 (≈ 2.86 µM)	–
isolate (source animal id): 46	–	≤ 0.25
isolate (source animal id): 49	–	≤ 0.25
isolate (source animal id): 50	–	> 16
isolate (source animal id): 51	–	≤ 0.25
isolate (source animal id): 52	–	≤ 0.25
isolate (source animal id): 53	–	≤ 0.25
isolate (source animal id): 55	–	≤ 0.25
isolate (source animal id): 56	–	≤ 0.25
isolate (source animal id): 57	–	≤ 0.25
isolate (source animal id): 79	1 (≈ 2.86 µM)	–
isolate (source animal id): 88	≤ 0.25	–
isolate (source animal id): 91	≤ 0.25	–
isolate (source animal id): 92	0.5 (≈ 1.43 µM)	–
isolate (source animal id): 100	–	≤ 0.25
isolate (source animal id): 103	–	≤ 0.25
isolate (source animal id): 107	–	≤ 0.25
isolate (source animal id): 108	–	≤ 0.25
isolate (source animal id): 111	≤ 0.25	–
isolate (source animal id): 112	–	≤ 0.25
isolate (source animal id): 113	–	≤ 0.25
isolate (source animal id): 121	–	> 16
isolate (source animal id): 122	1 (≈ 2.86 µM)	≤ 0.25
isolate (source animal id): 123	1 (≈ 2.86 µM)	0.5 (≈ 1.43 µM)
isolate (source animal id): 126	–	> 16
isolate (source animal id): 133	0.5 (≈ 1.43 µM)	≤ 0.25
isolate (source animal id): 135	–	≤ 0.25
isolate (source animal id): 138	–	> 16
isolate (source animal id): 141	–	≤ 0.25
isolate (source animal id): 142	–	≤ 0.25
isolate (source animal id): 145	–	≤ 0.25
isolate (source animal id): 149	–	≤ 0.25
isolate (source animal id): 151	–	≤ 0.25
isolate (source animal id): 152	–	≤ 0.25
isolate (source animal id): 154	–	≤ 0.25
isolate (source animal id): 158	1 (≈ 2.86 µM)	–
isolate (source animal id): 159	–	16 (≈ 45.8 µM)
isolate (source animal id): 162	–	8 (≈ 22.9 µM)
isolate (source animal id): 168	1 (≈ 2.86 µM)	–
isolate (source animal id): 169	1 (≈ 2.86 µM)	–
isolate (source animal id): 170	–	> 16
isolate (source animal id): 171	0.5 (≈ 1.43 µM)	≤ 0.25
isolate (source animal id): 172	–	> 16
isolate (source animal id): 173	–	> 16
isolate (source animal id): 175	1 (≈ 2.86 µM)	–
isolate (source animal id): 177	1 (≈ 2.86 µM)	–
isolate (source animal id): 179	–	> 16
isolate (source animal id): 180	–	> 16
isolate (source animal id): 181	1 (≈ 2.86 µM)	–
isolate (source animal id): 182	2 (≈ 5.72 µM)	–
isolate (source animal id): 183	1 (≈ 2.86 µM)	> 16
isolate (source animal id): 186	–	> 16
isolate (source animal id): 187	2 (≈ 5.72 µM)	> 16
isolate (source animal id): 188	–	> 16
isolate (source animal id): 190	2 (≈ 5.72 µM)	≤ 0.25
isolate (source animal id): 191	–	> 16
isolate (source animal id): 192	–	≤ 0.25
isolate (source animal id): 194	0.5 (≈ 1.43 µM)	–
isolate (source animal id): 195	1 (≈ 2.86 µM)	–
isolate (source animal id): 197	0.5 (≈ 1.43 µM)	–
isolate (source animal id): 201	–	> 16
isolate (source animal id): 202	–	> 16
isolate (source animal id): 209	–	> 16
isolate (source animal id): 211	1 (≈ 2.86 µM)	> 16
isolate (source animal id): 214	0.5 (≈ 1.43 µM)	–
isolate (source animal id): 220	–	> 16
isolate (source animal id): 221	–	16 (≈ 45.8 µM)
isolate (source animal id): 222	0.5 (≈ 1.43 µM)	–
isolate (source animal id): 223	0.5 (≈ 1.43 µM)	> 16
isolate (source animal id): 228	1 (≈ 2.86 µM)	–
isolate (source animal id): 230	2 (≈ 5.72 µM)	–
isolate (source animal id): 233	–	> 16
isolate (source animal id): 235	1 (≈ 2.86 µM)	–
isolate (source animal id): 236	0.5 (≈ 1.43 µM)	–
isolate (source animal id): 237	–	≤ 0.25
isolate (source animal id): 239	0.5 (≈ 1.43 µM)	–
isolate (source animal id): 241	2 (≈ 5.72 µM)	> 16
isolate (source animal id): 244	0.5 (≈ 1.43 µM)	–
isolate (source animal id): 246	1 (≈ 2.86 µM)	–
isolate (source animal id): 247	2 (≈ 5.72 µM)	–
isolate (source animal id): 250	0.5 (≈ 1.43 µM)	–
isolate (source animal id): 252	1 (≈ 2.86 µM)	≤ 0.25
isolate (source animal id): 253	–	≤ 0.25
isolate (source animal id): 259	–	16 (≈ 45.8 µM)
isolate (source animal id): 260	–	≤ 0.25
isolate (source animal id): 262	–	> 16
isolate (source animal id): 268	≤ 0.25	–
isolate (source animal id): 282	1 (≈ 2.86 µM)	> 16
isolate (source animal id): 285	1 (≈ 2.86 µM)	–
isolate (source animal id): 287	–	≤ 0.25
isolate (source animal id): 288	–	≤ 0.25
isolate (source animal id): 289	≤ 0.25	–
isolate (source animal id): 290	≤ 0.25	–
isolate (source animal id): 291	–	≤ 0.25
isolate (source animal id): 293	–	≤ 0.25
isolate (source animal id): 296	≤ 0.25	–
isolate (source animal id): 298	≤ 0.25	≤ 0.25
isolate (source animal id): 299	–	≤ 0.25
isolate (source animal id): 300	–	≤ 0.25
isolate (source animal id): 301	≤ 0.25	–
isolate (source animal id): 302	–	≤ 0.25
isolate (source animal id): 304	–	≤ 0.25
isolate (source animal id): 306	–	≤ 0.25
isolate (source animal id): 308	–	≤ 0.25
isolate (source animal id): 309	–	≤ 0.25
isolate (source animal id): 310	1 (≈ 2.86 µM)	–
isolate (source animal id): 313	–	≤ 0.25
isolate (source animal id): 318	–	≤ 0.25
isolate (source animal id): 320	≤ 0.25	≤ 0.25
isolate (source animal id): 321	–	≤ 0.25
isolate (source animal id): 323	–	≤ 0.25
isolate (source animal id): 324	–	≤ 0.25
isolate (source animal id): 326	–	≤ 0.25
isolate (source animal id): 328	–	≤ 0.25
isolate (source animal id): 329	–	≤ 0.25
isolate (source animal id): 331	≤ 0.25	–
isolate (source animal id): 333	≤ 0.25	≤ 0.25
isolate (source animal id): 335	–	≤ 0.25
isolate (source animal id): 338	–	≤ 0.25
isolate (source animal id): 341	0.5 (≈ 1.43 µM)	–
